Laboratory results taken from US12622910B2, “Inhibitors of Bruton's tyrosine kinase and methods of their use” (Janssen Pharmaceutica NV, priority 2021, dated 2026).

What was measured:
[1] = molecular target: D1 (h) (Homo sapiens, UniProt P21728); assay: Receptor panel, Study 1; assay type: binding
Experimental: (§1) RESULTS AND DISCUSSION—Selectivity—The compound of Formula (III) was evaluated in three selectivity panels to assess the potential for off-target pharmacology (Table 8). […] The kinase off-target profile of The compound of Formula (III) was assessed in a full human wild-type panel using radiometric kinase activity assays (KinaseProfiler™ and IC50Profiler™; Eurofins Scientific) (Table 9; FIG. 23). The compound of Formula (III) inhibited 4/278 kinases >50% at 1 micromolar, identifying BTK and the three other kinases having analogous Cys residues with the potential for covalent inhibition (BMX, TEC, BLK). […]. The cellular kinase selectivity of The compound of Formula (III) was established in native Ramos B cell kinome assays (KiNativ™; ActivX) confirmed BTK as the primary target with inhibition of BLK and TEC inhibition detected (Table 10).

[2] = molecular target: ETA (h) (Homo sapiens, UniProt P25101); assay: Receptor panel, Study 1; assay type: binding
Experimental: as §1

[3] = molecular target: beta 1 (h) (Homo sapiens, UniProt P08588); assay: Receptor panel, Study 1; assay type: binding
Chain of beta 1 (h) (P08588 whole entry): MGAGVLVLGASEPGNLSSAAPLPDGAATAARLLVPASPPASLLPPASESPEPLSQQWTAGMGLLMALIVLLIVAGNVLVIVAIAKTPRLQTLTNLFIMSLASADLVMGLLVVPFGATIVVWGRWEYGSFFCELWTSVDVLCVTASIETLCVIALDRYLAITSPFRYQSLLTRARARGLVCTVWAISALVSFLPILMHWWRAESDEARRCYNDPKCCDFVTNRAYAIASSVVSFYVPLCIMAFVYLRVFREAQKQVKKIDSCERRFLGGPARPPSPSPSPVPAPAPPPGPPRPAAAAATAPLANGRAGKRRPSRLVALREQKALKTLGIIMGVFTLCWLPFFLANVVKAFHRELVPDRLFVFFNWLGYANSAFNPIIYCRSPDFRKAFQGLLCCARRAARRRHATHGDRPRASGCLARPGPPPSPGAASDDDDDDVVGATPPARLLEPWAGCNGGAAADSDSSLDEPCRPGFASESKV
Experimental: as §1

[4] = test system: alpha 2; assay: Receptor panel, Study 1; assay type: binding
Experimental: as §1

[5] = molecular target: A2A (h) (Homo sapiens, UniProt P29274); assay: Receptor panel, Study 1; assay type: binding
Experimental: as §1

[6] = molecular target: A1 (h) (Homo sapiens, UniProt P30542); assay: Receptor panel, Study 1; assay type: binding
Experimental: as §1

[7] = molecular target: ORL1 (h) (NOP) (Homo sapiens, UniProt P41146); assay: Receptor panel, Study 1; assay type: binding
Chain of ORL1 (h) (NOP) (P41146 whole entry): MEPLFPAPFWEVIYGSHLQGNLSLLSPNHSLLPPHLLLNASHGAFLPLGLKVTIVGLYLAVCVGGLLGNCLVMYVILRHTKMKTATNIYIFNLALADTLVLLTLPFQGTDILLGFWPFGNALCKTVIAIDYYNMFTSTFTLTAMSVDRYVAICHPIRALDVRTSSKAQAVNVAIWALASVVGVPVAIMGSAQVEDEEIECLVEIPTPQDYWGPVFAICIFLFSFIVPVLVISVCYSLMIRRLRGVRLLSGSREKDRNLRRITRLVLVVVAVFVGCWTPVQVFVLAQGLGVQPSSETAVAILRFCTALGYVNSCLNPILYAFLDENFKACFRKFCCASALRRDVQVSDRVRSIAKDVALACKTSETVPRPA
Experimental: as §1

[8] = molecular target: delta 2(h) (DOP) (Homo sapiens, UniProt P41143); assay: Receptor panel, Study 1; assay type: binding
Experimental: as §1

[9] = test system: K^+V channel; assay: Receptor panel, Study 1; assay type: binding
Experimental: as §1

[10] = test system: kappa (KOP); assay: Receptor panel, Study 1; assay type: binding
Experimental: as §1

[11] = molecular target: 5-HT7 (h) (Homo sapiens, UniProt P34969); assay: Receptor panel, Study 1; assay type: binding
Experimental: as §1

[12] = test system: sst (non-selective); assay: Receptor panel, Study 1; assay type: binding
Experimental: as §1

[13] = molecular target: B2 (h) (Homo sapiens, UniProt P30411); assay: Receptor panel, Study 1; assay type: binding
Chain of B2 (h) (P30411 whole entry): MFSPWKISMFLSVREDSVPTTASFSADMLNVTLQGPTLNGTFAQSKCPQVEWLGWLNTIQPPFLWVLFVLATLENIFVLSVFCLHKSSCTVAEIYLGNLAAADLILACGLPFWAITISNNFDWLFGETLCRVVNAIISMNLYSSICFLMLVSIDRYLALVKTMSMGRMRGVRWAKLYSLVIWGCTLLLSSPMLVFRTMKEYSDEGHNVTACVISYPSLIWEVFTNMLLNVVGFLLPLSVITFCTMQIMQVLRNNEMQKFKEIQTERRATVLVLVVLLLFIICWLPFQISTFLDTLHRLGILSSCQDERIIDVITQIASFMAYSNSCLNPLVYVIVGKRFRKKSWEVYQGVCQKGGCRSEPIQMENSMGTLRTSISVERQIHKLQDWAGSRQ
Experimental: as §1

[14] = molecular target: 5-HT Transporter (h) (Homo sapiens, UniProt P31645); assay: Receptor panel, Study 1; assay type: binding
Chain of 5-HT Transporter (h) (P31645 whole entry): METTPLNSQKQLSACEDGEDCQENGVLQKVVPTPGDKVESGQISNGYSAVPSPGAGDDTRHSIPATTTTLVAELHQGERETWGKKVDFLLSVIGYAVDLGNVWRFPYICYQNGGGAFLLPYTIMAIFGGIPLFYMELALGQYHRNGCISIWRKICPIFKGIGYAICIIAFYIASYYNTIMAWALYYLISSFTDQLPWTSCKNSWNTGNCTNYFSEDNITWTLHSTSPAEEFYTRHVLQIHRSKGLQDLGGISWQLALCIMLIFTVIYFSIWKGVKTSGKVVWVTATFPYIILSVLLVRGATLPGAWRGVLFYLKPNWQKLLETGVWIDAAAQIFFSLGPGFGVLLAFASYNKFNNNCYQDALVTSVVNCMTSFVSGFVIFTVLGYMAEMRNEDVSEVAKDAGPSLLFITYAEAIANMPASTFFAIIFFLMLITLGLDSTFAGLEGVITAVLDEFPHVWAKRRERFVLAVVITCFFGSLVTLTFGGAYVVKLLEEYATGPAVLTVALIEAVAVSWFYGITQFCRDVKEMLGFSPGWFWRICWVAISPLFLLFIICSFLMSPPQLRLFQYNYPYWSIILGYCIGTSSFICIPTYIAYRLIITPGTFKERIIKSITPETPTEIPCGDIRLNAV
Experimental: as §1

[15] = molecular target: Vla(h) (Homo sapiens, UniProt P37288); assay: Receptor panel, Study 1; assay type: binding
Chain of Vla(h) (P37288 whole entry): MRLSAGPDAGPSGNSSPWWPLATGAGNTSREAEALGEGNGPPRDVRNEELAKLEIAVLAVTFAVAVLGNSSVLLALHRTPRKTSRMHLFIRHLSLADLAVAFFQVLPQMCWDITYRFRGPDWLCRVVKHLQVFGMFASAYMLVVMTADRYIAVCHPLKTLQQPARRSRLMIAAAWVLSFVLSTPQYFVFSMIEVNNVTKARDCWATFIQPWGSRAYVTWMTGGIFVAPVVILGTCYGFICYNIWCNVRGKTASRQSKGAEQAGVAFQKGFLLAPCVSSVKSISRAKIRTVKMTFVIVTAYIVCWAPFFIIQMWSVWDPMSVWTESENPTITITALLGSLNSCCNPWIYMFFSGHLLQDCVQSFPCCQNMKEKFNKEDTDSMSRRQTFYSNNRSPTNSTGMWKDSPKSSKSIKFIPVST
Experimental: as §1

[16] = molecular target: CCR1 (h) (Homo sapiens, UniProt P32246); assay: Receptor panel, Study 1; assay type: binding
Chain of CCR1 (h) (P32246 whole entry): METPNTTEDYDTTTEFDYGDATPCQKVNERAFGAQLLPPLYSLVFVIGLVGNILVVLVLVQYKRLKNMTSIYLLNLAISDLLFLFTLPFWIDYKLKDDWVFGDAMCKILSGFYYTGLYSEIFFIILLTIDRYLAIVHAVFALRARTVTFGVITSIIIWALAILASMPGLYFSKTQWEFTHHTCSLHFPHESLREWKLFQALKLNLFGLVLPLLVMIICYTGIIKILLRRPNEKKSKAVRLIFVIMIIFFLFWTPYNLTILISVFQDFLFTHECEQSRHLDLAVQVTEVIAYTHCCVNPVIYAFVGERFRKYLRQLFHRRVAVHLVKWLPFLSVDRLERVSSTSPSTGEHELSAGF
Experimental: as §1

[17] = molecular target: MC4 (h) (Homo sapiens, UniProt P32245); assay: Receptor panel, Study 1; assay type: binding
Experimental: as §1

[18] = molecular target: A3 (h) (Homo sapiens, UniProt P0DMS8); assay: Receptor panel, Study 1; assay type: binding
Chain of A3 (h) (P0DMS8 whole entry): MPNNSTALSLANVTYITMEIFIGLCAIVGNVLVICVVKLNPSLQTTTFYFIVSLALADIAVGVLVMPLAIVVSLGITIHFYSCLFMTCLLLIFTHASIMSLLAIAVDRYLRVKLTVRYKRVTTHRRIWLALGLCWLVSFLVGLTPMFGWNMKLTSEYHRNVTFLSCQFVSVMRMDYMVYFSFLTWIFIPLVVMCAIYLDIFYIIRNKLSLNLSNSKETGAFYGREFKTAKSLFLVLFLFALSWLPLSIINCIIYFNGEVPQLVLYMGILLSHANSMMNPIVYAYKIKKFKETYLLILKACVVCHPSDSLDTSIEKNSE
Experimental: as §1

[19] = molecular target: 5-HT3 (h) (Homo sapiens, UniProt P46098); assay: Receptor panel, Study 1; assay type: binding
Experimental: as §1

[20] = molecular target: mu (h) (MOP) (Homo sapiens, UniProt P35372); assay: Receptor panel, Study 1; assay type: binding
Chain of mu (h) (MOP) (P35372 whole entry): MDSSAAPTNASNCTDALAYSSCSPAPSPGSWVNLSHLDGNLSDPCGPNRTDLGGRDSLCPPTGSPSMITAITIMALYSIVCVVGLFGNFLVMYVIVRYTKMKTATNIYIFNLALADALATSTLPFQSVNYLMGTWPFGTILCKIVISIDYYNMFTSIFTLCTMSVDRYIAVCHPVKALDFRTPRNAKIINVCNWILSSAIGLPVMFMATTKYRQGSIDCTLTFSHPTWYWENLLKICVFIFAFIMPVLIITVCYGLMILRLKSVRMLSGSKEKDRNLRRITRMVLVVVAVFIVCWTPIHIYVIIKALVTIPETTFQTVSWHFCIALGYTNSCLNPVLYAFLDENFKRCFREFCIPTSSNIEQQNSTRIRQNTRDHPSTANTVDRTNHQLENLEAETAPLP
Experimental: as §1

[21] = molecular target: M2 (h) (Homo sapiens, UniProt P08172); assay: Receptor panel, Study 1; assay type: binding
Chain of M2 (h) (P08172 whole entry): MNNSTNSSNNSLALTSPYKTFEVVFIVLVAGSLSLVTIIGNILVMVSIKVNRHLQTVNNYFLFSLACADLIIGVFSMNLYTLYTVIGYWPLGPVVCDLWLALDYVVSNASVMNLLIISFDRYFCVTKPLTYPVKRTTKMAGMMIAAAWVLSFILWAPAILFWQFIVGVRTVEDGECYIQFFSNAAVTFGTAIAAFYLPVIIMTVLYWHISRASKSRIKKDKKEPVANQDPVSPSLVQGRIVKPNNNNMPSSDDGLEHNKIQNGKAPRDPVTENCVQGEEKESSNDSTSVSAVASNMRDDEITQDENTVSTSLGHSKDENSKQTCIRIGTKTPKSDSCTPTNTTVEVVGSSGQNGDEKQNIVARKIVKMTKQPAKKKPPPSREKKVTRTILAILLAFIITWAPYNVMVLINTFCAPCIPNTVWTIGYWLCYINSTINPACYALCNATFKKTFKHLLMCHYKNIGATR
Experimental: as §1

[22] = molecular target: NE transporter (h) (Homo sapiens, UniProt P23975); assay: Receptor panel, Study 1; assay type: binding
Chain of NE transporter (h) (P23975 whole entry): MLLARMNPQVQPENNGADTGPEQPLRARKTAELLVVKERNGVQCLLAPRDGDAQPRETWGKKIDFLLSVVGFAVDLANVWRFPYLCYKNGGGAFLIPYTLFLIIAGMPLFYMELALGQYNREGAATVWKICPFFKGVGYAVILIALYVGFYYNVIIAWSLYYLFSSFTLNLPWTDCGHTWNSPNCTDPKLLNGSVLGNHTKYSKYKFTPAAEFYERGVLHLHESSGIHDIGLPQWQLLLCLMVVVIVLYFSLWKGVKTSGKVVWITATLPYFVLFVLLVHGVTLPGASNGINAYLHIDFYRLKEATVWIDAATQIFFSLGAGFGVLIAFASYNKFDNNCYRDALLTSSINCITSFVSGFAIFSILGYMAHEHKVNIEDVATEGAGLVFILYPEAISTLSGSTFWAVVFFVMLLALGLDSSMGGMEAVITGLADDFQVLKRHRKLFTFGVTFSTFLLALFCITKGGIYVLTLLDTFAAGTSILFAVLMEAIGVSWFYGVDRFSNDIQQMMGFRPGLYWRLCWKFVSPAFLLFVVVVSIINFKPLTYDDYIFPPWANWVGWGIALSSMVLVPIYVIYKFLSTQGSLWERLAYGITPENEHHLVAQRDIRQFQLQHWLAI
Experimental: as §1

[23] = test system: GABA; assay: Receptor panel, Study 1; assay type: binding
Experimental: as §1

[24] = molecular target: 5-HT1B (Rattus norvegicus, UniProt P28564); assay: Receptor panel, Study 1; assay type: binding
Experimental: as §1

[25] = test system: Ca^2+ channel; assay: Receptor panel, Study 1; assay type: binding
Experimental: as §1

[26] = molecular target: 5-HT5A (h) (Homo sapiens, UniProt P47898); assay: Receptor panel, Study 1; assay type: binding
Experimental: as §1

[27] = molecular target: AT1 (h) (Homo sapiens, UniProt P30556); assay: Receptor panel, Study 1; assay type: binding
Experimental: as §1

[28] = molecular target: NT1 (h) (NTS1) (Homo sapiens, UniProt P30989); assay: Receptor panel, Study 1; assay type: binding
Experimental: as §1

[29] = molecular target: 5-HT6 (h) (Homo sapiens, UniProt P50406); assay: Receptor panel, Study 1; assay type: binding
Experimental: as §1

[30] = test system: alpha 1; assay: Receptor panel, Study 1; assay type: binding
Experimental: as §1

[31] = Covalent binding to hepatic proteins in human hepatocytes (14C label); assay type: in vitro ADME
Experimental: The extent of the compound of Formula (III) covalent binding to hepatic proteins was determined in human hepatocytes at 1 and 10 μM (Table 19). A ^14C label was introduced at the acrylamide carbonyl carbon of the compound of Formula (III). […] Troglitazone and pioglitazone served as positive and negative controls, respectively.

[32] = Metabolic stability in liver microsomes; assay type: in vitro ADME, human
Experimental: Additional Data on Preclinical PK Profile—Protein binding of the compound of Formula (III) was studied using an equilibrium dialysis method in plasma from human, cynomolgus monkey, beagle dog, Sprague Dawley rat, CD-1 mouse, and guinea pig at 0.25, 2.5, and 25 μM. […] In human and monkey, the plasma protein binding was concentration dependent. […] Free fraction of the compound of Formula (III) in liver microsomes from various species ranged from 75.1% to 87.9% at 0.25 mg/mL and from 58.9% to 86.5% at 1.0 mg/mL (Table 17). […] In hepatocytes, the compound of Formula (III) turnover followed a similar trend, with T1/2 ranging from 75.3 minutes in monkey to 278.1 minutes in human.

[33] = Blood-to-plasma concentration ratio; assay type: in vitro ADME; conditions: human, fresh blood

Chain of D1 (h) (P21728 whole entry): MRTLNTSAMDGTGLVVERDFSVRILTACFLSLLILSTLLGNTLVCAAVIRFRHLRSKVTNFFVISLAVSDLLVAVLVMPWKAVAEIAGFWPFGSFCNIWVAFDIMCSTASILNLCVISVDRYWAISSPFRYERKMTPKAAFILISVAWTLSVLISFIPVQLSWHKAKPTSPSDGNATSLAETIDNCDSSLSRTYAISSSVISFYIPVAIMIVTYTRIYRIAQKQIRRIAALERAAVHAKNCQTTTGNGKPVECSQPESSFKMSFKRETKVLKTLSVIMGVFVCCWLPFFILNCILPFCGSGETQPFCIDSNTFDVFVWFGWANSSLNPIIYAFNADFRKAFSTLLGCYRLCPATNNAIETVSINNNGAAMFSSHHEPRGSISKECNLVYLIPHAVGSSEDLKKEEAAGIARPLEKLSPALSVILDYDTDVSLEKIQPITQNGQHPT

For C=CC(=O)N[C@H]1CCC[C@H]1NC(=O)c1sc2nccc3c2c1NC(=O)N3c1cnc(CC(C)C)cc1C (atropisomer, axis not shown) [compound of Formula (III), N-((1R,2S)-2-Acrylamidocyclopentyl)-5-(S)-(6-isobutyl-4-methylpyridin-3-yl)-4-oxo-4,5-dihydro-3H-1-thia-3,5,8-triazaacenaphthylene-2-carboxamide], the inhibition at 10 µM [1] was < 10%, the inhibition at 10 µM [2] was < 10% and the inhibition at 10 µM [3] was < 10%. The “% Inhibition at 10 μM” value [4] was “— (no inhibition observed)”, the inhibition at 10 µM [5] was < 10% and the inhibition at 10 µM [6] was < 10%. The inhibition at 10 µM [7] was 14.6%, the inhibition at 10 µM [8] was < 10% and the “% Inhibition at 10 μM” value [9] was 12.2%. The “% Inhibition at 10 μM” value [10] was “— (no inhibition observed)”, the inhibition at 10 µM [11] was < 10% and the “% Inhibition at 10 μM” value [12] was “— (no inhibition observed)”. For the same compound, the inhibition at 10 µM [13] was < 10%, the inhibition at 10 µM [14] was < 10% and the inhibition at 10 µM [15] was < 10%. For the same compound, the inhibition at 10 µM [16] was < 10%, the inhibition at 10 µM [17] was < 10% and the inhibition at 10 µM [18] was < 10%. For the same compound, the inhibition at 10 µM [19] was < 10%, the inhibition at 10 µM [20] was < 10% and the inhibition at 10 µM [21] was < 10%. The inhibition at 10 µM [22] was < 10%, the “% Inhibition at 10 μM” value [23] was “— (no inhibition observed)” and the inhibition at 10 µM [24] was < 10%. For the same compound, the “% Inhibition at 10 μM” value [25] was “— (no inhibition observed)”, the inhibition at 10 µM [26] was < 10% and the inhibition at 10 µM [27] was < 10%. The inhibition at 10 µM [28] was < 10%, the inhibition at 10 µM [29] was < 10% and the “% Inhibition at 10 μM” value [30] was “— (no inhibition observed)”. For the same compound, the “Compound Turnover” value ([31]; 1 μM study) was 49.1%, the “Fraction Covalently Bound (fcvb)” value ([31]; 1 μM study) was 0.07 ± 0.01 and the “Net Covalent Binding” value ([31]; 1 μM study, 0.5×10^6 cells/mL, 4.5 h) was 46.8 ± 5.1 pmol eq/mg protein. For the same compound, the “Compound Turnover” value ([31]; 10 μM study) was 70.1%, the “Fraction Covalently Bound (fcvb)” value ([31]; 10 μM study) was 0.00564 ± 0.0001 and the “Net Covalent Binding” value ([31]; 10 μM study, 0.75×10^6 cells/mL, 3 h) was 50.0 ± 0.8 pmol eq/mg protein. For the same compound, the “Extraction Ratio, liver microsomes” value ([32]; Human) was 0.63, the microsomal CLint ([32]; human, liver microsomes) was 31.1 µL/min/mg and the half-life ([32]; human, liver microsomes, read-out: T1/2, liver microsomes) was 22.3 min. The blood plasma ratio at 1 μM [33] was 0.67.
